In ChEMBL document CHEMBL5465560, “Selectivity Literature for EUbOPEN Chemogenomic Library” (2024):
One block for each molecule: values may come before it.

Experiments:
[1] = molecular target: Serine/threonine-protein kinase PAK 1 (Homo sapiens) (UniProt Q13153); assay: Selectivity interaction (Kinase panel (Eurofins)) EUB0001564a PAK1; details: at 1 µM
[2] = molecular target: Dual specificity protein kinase CLK3 (Homo sapiens, UniProt P49761); assay: Selectivity interaction (SelectScreen profiling (Invitrogen)) EUB0000607a CLK3; details: at 2 µM
[3] = molecular target: Serine/threonine-protein kinase 10 (Homo sapiens) (UniProt O94804); assay: Selectivity interaction (ActivX KiNativ screen (kinase selectivity in THP-1 cell lysates)) EUB0000639a STK10; assay type: subcellular; details: lysate, at 0.01 µM
[4] = molecular target: DNA-dependent protein kinase catalytic subunit (Homo sapiens) (UniProt P78527); assay: Selectivity interaction (Kinase panel (Invitrogen)) EUB0000639a PRKDC; details: at 200 nM
[5] = molecular target: RAF proto-oncogene serine/threonine-protein kinase (Homo sapiens) (UniProt P04049); assay: Selectivity interaction (Millipore kinase profiler) EUB0000124b RAF1; details: at 10 µM
[6] = molecular target: Activin receptor type-2B (Homo sapiens) (UniProt Q13705); assay: Selectivity interaction (Ambit KINOMEscan and KiNATiv profiling in Jurkat cells) EUB0000090b ACVR2B; assay type: cell-based; details: at 1 µM
[7] = molecular target: Calcium/calmodulin-dependent protein kinase type II subunit alpha (Homo sapiens, UniProt Q9UQM7); assay: Selectivity interaction (KinomeScan (DiscoverX)) EUB0000655a CAMK2A; details: at 10 µM
[8] = molecular target: Dual specificity protein kinase CLK1 (Homo sapiens, UniProt P49759); assay: Selectivity interaction (KinomeScan (DiscoverX)) EUB0000045b CLK1
[9] = molecular target: Tyrosine-protein kinase Fer (Homo sapiens) (UniProt P16591); assay: Selectivity interaction (KinomeScan (DiscoverX)) EUB0000045b FER
[10] = molecular target: T1, Muscarinic acetylcholine receptor M2 (Homo sapiens) (UniProt P08172); assay: Selectivity interaction (GPCR panel (PDSP screen)) EUB0001079a CHRM2; details: at 10 µM
T1 sequence (whole entry): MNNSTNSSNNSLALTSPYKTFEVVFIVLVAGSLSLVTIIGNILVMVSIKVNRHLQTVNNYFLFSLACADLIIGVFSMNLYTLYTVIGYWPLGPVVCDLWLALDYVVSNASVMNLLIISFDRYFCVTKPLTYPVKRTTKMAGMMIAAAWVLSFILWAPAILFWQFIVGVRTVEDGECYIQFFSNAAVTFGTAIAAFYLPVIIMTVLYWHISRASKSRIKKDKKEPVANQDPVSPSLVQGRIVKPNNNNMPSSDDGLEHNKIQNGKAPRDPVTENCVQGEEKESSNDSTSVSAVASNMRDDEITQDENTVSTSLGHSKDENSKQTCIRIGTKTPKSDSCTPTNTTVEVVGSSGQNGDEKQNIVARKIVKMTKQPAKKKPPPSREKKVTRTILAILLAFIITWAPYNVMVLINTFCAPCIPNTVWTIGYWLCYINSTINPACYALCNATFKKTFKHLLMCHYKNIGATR

[11] = molecular target: T2, Serine/threonine-protein kinase BRSK1 (Homo sapiens) (UniProt Q8TDC3); assay: Selectivity interaction (KinomeScan (DiscoverX)) EUB0000092b BRSK1; details: at 10 µM
T2 sequence (whole entry): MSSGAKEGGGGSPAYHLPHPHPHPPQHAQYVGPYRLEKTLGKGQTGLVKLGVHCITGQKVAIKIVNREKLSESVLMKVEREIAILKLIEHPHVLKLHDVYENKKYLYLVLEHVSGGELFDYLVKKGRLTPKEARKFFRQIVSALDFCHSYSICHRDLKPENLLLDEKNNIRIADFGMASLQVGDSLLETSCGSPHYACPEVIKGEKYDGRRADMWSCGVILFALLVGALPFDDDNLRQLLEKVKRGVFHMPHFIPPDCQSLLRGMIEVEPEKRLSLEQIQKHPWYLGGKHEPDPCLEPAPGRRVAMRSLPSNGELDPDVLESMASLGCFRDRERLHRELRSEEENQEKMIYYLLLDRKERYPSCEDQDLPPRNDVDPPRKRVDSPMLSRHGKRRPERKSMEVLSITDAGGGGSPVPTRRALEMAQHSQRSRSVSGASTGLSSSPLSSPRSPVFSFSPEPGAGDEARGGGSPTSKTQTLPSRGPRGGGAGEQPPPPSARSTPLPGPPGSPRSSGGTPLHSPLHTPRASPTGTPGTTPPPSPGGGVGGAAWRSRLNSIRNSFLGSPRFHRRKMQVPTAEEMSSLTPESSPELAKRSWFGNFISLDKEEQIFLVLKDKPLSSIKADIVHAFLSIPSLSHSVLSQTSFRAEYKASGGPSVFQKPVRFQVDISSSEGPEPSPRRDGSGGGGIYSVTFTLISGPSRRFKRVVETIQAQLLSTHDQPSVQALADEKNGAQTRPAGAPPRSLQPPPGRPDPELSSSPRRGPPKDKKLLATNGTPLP

[12] = molecular target: Myosin light chain kinase 2, skeletal/cardiac muscle (Homo sapiens) (UniProt Q9H1R3); assay: Selectivity interaction (KinomeScan (DiscoverX)) EUB0000092b MYLK2; details: at 10 µM
Chain of Myosin light chain kinase 2, skeletal/cardiac muscle (Homo sapiens) (Q9H1R3 whole entry): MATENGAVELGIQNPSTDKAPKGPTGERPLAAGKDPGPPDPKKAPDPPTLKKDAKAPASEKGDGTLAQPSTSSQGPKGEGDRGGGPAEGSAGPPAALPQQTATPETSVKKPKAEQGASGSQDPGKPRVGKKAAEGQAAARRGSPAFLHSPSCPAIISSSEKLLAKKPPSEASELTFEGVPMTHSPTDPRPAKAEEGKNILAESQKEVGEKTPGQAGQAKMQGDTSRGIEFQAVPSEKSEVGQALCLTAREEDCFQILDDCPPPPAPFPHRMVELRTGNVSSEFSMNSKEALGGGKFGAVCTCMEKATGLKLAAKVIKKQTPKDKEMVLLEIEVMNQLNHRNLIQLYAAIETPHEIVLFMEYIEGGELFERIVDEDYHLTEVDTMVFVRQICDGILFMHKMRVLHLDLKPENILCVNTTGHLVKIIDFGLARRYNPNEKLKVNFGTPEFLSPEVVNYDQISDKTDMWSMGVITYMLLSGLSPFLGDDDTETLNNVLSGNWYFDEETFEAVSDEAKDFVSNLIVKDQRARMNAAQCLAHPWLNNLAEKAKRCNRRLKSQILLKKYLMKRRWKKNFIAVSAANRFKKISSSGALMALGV

Chain of Dual specificity protein kinase CLK1 (P49759 whole entry, looked up): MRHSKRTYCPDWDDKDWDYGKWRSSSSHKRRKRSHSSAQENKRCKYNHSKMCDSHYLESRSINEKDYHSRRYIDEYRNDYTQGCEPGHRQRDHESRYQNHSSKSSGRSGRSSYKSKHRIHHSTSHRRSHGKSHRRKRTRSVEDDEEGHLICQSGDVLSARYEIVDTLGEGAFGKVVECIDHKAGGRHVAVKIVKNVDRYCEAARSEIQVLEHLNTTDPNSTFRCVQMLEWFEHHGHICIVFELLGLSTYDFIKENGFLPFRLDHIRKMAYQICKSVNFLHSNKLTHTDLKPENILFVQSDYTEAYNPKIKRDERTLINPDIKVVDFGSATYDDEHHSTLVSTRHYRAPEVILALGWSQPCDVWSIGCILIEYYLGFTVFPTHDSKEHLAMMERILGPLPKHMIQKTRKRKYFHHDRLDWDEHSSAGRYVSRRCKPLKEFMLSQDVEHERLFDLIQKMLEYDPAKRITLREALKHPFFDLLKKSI
Chain of Tyrosine-protein kinase Fer (Homo sapiens) (P16591 whole entry, looked up): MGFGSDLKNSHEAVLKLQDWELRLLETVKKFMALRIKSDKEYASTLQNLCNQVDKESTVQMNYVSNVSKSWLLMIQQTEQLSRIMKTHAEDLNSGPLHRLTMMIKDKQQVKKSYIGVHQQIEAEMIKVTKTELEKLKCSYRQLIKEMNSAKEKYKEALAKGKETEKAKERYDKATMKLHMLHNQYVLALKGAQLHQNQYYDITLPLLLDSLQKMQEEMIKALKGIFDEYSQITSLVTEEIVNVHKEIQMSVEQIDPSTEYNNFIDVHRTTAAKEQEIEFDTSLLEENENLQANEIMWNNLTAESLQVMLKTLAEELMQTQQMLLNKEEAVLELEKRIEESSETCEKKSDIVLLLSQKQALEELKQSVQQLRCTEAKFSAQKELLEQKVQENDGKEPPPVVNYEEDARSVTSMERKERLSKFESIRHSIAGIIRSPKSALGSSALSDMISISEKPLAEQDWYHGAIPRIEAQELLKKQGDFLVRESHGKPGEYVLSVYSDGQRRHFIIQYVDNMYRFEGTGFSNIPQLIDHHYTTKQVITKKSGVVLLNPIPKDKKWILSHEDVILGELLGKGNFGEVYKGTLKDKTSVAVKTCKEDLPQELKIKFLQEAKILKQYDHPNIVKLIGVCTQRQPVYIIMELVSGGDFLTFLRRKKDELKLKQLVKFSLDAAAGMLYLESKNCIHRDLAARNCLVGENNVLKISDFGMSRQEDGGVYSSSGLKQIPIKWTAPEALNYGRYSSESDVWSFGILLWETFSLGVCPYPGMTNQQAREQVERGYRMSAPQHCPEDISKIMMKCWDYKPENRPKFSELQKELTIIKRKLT
Chain of Serine/threonine-protein kinase 10 (Homo sapiens) (O94804 whole entry, looked up): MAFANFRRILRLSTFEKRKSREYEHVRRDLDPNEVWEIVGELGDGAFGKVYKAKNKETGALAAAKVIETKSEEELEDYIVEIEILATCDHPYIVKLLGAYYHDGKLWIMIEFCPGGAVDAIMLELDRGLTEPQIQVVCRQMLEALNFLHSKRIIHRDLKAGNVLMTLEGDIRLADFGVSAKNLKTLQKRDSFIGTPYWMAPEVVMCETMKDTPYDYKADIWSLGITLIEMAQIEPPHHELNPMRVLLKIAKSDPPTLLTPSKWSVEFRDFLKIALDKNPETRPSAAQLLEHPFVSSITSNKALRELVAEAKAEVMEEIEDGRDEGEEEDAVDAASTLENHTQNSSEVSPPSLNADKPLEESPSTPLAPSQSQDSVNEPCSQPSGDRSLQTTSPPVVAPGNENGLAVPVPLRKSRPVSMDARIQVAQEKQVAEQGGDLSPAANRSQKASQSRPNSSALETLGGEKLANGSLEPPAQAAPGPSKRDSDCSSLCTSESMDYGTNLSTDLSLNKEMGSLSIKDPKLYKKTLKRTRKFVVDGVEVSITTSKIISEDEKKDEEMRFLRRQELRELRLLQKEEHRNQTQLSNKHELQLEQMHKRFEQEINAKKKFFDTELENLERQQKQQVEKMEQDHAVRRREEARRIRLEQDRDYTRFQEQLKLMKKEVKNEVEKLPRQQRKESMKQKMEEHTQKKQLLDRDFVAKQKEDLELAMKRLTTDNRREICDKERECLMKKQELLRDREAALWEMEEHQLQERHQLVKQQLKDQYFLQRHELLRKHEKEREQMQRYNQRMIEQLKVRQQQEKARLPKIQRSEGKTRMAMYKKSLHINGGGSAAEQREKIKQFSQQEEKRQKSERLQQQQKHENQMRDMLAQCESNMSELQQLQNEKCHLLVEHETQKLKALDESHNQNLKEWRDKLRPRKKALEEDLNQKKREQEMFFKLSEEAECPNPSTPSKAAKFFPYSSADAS
Chain of Dual specificity protein kinase CLK3 (P49761 whole entry, looked up): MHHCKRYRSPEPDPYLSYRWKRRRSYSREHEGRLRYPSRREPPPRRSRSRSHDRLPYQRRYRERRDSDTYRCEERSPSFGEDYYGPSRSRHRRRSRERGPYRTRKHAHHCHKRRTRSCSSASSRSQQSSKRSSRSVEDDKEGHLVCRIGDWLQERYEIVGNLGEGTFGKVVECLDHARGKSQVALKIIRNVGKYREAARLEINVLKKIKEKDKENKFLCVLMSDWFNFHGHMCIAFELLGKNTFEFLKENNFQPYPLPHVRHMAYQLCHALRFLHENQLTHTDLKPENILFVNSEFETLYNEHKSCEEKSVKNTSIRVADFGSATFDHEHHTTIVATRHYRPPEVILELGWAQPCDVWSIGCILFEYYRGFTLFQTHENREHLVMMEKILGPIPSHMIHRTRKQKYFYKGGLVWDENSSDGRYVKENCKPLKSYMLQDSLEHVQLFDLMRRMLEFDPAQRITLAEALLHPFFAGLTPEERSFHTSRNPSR
Chain of Calcium/calmodulin-dependent protein kinase type II subunit alpha (Q9UQM7 whole entry): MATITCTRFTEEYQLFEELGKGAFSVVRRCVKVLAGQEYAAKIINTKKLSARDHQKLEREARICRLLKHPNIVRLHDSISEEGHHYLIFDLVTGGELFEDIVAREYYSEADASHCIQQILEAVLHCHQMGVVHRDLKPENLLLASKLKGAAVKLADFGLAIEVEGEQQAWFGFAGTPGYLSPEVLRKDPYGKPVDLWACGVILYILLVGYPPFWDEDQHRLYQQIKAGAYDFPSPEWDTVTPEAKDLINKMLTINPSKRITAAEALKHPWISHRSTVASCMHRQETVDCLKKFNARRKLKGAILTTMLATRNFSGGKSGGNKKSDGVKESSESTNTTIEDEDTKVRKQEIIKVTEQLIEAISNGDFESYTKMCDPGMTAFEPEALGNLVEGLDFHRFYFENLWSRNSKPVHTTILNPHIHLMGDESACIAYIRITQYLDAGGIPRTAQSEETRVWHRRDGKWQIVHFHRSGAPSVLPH
Chain of Serine/threonine-protein kinase PAK 1 (Homo sapiens) (Q13153 whole entry): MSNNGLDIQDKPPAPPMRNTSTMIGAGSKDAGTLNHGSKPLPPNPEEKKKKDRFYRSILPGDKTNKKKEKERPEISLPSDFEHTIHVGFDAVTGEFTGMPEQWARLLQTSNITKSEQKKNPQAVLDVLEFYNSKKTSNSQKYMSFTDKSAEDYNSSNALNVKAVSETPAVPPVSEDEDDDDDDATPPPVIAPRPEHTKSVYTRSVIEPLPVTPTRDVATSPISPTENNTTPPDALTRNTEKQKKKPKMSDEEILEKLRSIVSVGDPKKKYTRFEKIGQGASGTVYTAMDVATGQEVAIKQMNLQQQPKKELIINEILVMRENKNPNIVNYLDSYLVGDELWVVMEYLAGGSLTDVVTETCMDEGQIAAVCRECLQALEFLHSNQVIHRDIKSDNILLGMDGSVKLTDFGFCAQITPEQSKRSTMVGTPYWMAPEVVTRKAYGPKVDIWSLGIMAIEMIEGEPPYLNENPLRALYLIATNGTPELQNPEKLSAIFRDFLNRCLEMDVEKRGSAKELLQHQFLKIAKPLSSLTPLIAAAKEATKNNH
Chain of RAF proto-oncogene serine/threonine-protein kinase (Homo sapiens) (P04049 whole entry): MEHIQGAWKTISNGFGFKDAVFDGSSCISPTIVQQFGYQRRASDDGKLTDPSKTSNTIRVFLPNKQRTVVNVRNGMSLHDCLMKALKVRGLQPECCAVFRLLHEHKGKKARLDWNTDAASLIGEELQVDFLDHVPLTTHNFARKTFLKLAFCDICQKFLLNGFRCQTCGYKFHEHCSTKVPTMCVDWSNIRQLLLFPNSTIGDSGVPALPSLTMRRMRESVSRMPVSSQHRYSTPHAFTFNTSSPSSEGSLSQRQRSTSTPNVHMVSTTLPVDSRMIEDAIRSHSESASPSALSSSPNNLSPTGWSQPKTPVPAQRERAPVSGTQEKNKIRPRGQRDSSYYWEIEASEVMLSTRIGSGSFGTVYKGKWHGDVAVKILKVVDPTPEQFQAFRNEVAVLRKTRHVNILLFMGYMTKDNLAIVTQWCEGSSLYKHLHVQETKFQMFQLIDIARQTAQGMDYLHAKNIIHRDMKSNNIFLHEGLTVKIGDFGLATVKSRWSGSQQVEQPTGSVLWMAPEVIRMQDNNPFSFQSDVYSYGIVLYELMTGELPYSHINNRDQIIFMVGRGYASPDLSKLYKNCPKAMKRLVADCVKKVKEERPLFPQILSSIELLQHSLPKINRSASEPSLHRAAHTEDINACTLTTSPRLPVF

% of inhibition [1]: 23.8%
SMILES: CC[C@@H](Nc1c(C#N)c(-c2ccc(-c3cccc(C)c3F)cc2)nc2cnccc12)C(=O)O [BAY-091]

SMILES: CNC(=O)Nc1ccc(-c2nc(N3CC4CCC(C3)O4)c3cnn(C4CCC5(CC4)OCCO5)c3n2)cc1
% of inhibition [2]: 2%

% of inhibition [3]: 2.4%
% of inhibition [4]: 7.87%
SMILES: CC[C@@H]1[C@H](F)C(=O)N[C@@H]1COc1nccc2cc(C(N)=O)c(OC)cc12 [ZIMLOVISERTIB]

% of control [5]: 108%
SMILES: CC(=O)Nc1cccc(-n2c(=O)n(C3CC3)c(=O)c3c(Nc4ccc(I)cc4F)n(C)c(=O)c(C)c32)c1

SMILES: CN(C)C/C=C/C(=O)Nc1ccc(C(=O)N2CCCC(Nc3ncc(Cl)c(-c4c[nH]c5ccccc45)n3)C2)cc1 (centres undefined)
% of control [6]: 77%

SMILES: CN(C)CCOc1ccc(-c2nc(-c3ccncc3)c(-c3ccc4c(c3)CC/C4=N\O)[nH]2)cc1
% of control [7]: 88%

SMILES: C=CC(=O)Nc1cc(-n2c(=O)ccc3cnc4ccc(-c5ccc(NS(C)(=O)=O)cc5)cc4c32)ccc1C
% of control ([8]; at 1 µM): 95%
% of control ([8]; at 10 µM): 86%
% of control ([9]; at 1 µM): 66%
% of control ([9]; at 10 µM): 89%

SMILES: Nc1cnc(N2CCc3cc(S(=O)(=O)Nc4c(F)cc(Cl)cc4F)cc(N4CCCC4=O)c32)nc1 [TP-020n]
% of inhibition [10]: 3.7%

SMILES: CCC(=O)N1CCN(c2ccc(-n3c(=O)ccc4cnc5ccc(-c6cnc7ccccc7c6)cc5c43)cc2C(F)(F)F)CC1
% of control [11]: 78%
% of control [12]: 40%
